Consider seven compounds from patent publication US12331048B2, “Pyrido-[3,4-d]pyridazine amine derivatives useful as NLRP3 inhibitors” (Ventus Therapeutics U.S., Inc., priority 2022, dated 2025).

≈ marks a conversion by molar mass, not a printed value. Like-named read-outs stand apart in the source and are kept apart here. Where only a bound is given, the exact number is not on record here.

The target of one data set is T1, NLRP3 (Homo sapiens, UniProt Q96P20).
T1 construct: endogenous in cells
T1 sequence (Q96P20 whole entry): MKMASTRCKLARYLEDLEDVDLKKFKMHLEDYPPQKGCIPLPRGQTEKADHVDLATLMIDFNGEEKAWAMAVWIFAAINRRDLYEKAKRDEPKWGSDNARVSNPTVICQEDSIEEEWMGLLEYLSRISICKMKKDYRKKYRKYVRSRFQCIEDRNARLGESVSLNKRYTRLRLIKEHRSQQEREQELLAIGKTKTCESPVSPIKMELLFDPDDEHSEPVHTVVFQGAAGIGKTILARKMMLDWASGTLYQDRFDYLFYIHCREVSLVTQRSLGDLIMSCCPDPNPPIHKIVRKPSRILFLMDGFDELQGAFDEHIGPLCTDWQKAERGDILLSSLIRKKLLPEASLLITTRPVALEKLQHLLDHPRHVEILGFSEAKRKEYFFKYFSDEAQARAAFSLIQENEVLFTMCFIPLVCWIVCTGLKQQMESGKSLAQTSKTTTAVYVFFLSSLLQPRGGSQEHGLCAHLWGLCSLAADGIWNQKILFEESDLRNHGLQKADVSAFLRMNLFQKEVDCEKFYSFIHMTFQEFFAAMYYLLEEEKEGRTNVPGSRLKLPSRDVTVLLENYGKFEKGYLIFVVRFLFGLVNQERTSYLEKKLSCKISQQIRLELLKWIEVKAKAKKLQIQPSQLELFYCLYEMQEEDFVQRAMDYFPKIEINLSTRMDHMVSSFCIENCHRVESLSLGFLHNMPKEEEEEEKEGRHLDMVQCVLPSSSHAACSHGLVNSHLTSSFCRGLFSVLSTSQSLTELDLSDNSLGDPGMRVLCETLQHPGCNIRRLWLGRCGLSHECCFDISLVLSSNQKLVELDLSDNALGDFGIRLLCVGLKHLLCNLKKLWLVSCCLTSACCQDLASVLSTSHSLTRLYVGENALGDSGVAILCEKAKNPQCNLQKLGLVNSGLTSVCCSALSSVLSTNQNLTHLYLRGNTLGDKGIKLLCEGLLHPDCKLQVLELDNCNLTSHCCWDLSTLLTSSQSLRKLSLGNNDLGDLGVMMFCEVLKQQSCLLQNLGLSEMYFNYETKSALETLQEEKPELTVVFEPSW
Briefly: Human whole blood (hWB) NLRP3 assay. As to conditions: LPS priming 1 μg/ml, ATP activation, read-out: hWB IC50 (raw activity data). It counts as cell-based. The procedure: Heparin lithium coated tubes were used to collect blood from volunteers. Blood samples were distributed on 96 well plates using 90 μl per well. Priming was performed by adding 5 μl of LPS (O26:B6; Sigma L-2654) at a final concentration of 1 μg/ml for 4.5 hours in a humidified incubator with 37° C., 5% CO2. Thirty minutes prior to NLRP3 activation, 5 μl of a 20× compound solution or vehicle (2% DMSO) was added to each well and plates were incubated on a shaker (450 rpm) in a humidified incubator with 37° C., 5% CO2. Activation was then performed by adding 3.3 μl of a 31×ATP solution per well. At the end of the 30 minutes stimulation, the plates were centrifuged (800 g, 10 min. room temperature) and the plasma from each well was frozen at −80° C. […] levels in the supernatant were analyzed using a mesoscale discovery assay (MSD K151TUK) according to the manufacturers' instructions. Human whole blood was drawn from healthy volunteers after obtaining written informed consent.
Table D assigns each compound a code for potency in the human whole blood (hWB) NLRP3 Assay: A or B. According to the code. […] The corresponding raw activity data is also included.

A short description of data set [1]: Brain levels (kp and kpu,u) after oral administration. The class given is in vivo, CDI mice. As to conditions: mice, 20 mpk PO; for Kp at 24 h / Kpu,u (unbound brain-to-plasma ratio): CDI, mouse, brain / plasma, po, 20 mg/kg. The procedure: The in vivo total brain to plasma ratio was assessed in CDI mice after oral administration of the compound. Blood was collected at several timepoints up to 24 h, and transferred into plastic micro centrifuge tubes with EDTA-K2 as anticoagulant. Blood samples were centrifuged at 4000 g for 5 minutes at 4° C. to obtain plasma, then immediately frozen and stored at −75±15° C. prior to analysis. Animals were terminally anaesthetized with a rising concentration of CO2 gas at about 1 minute. At selected timepoints, whole brains were removed from the skull, rinsed in cold PBS to remove blood, dried with clean gauze, then frozen in liquid nitrogen and kept at −75±15° C. before analysis. At the time of analysis, brain samples were homogenized with PBS by tissue weight (g) to PBS volume (mL) ratio 1:3. Plasma and brain drug levels were quantified by LC/MS/MS on a AB Sciex Triple Quad 5500+ instrument, after separation on a HALO 160A ES-C18, 2.7 μm 2.1-50 mm column. Quantitation was performed using a calibration curve prepared in blank plasma or blank brain homogenate. The software WinNonlin (Phoenix™) was used for pharmacokinetic analysis from the concentrations versus time data, including the AUCinf and AUClast. The Kp ratio (total brain concentration over total plasma concentration) was calculated as (AUCtot,br)/(AUCtot,pl).
The unbound brain exposure was assessed as Kpuu, which is the free brain/free plasma concentration ratio (Cu,br/Cu,pl). The Cu,br/Cu,pl ratios were obtained from in vivo total brain to plasma ratios (Ctot,br/Ctot,pl) by using in vitro determined Fu,br and Fu,pl.
Plasma protein binding and brain homogenate protein binding were measured by equilibrium dialysis in a HTDialysis plate. The dialysis membranes were soaked in ultrapure water for 60 minutes to separate strips, then in 20% ethanol for 20 minutes, finally in dialysis buffer for 20 minutes. The dialysis set up was assembled according to the manufacturer's instruction. Each cell received 150 μL of plasma or brain homogenate spiked with 1 mM of compound, and dialyzed against an equal volume of dialysis buffer (PBS). The dialysis plate was sealed and incubated in an incubator at 37° C. with 5% CO2 at 100 rpm for 6 hours. At the end of incubation, compound concentration was measured in both chambers by LC-MS/MS on a Triple Quad™ 5500 from AB Inc after separation on a XSelect Hss T3 2.5μ (2.1×30 mm) column. Free fraction (Fu) was calculated as (Peak Area Ratio buffer chamber/Peak Area Ratio plasma chamber).
Kpuu was calculated as (AUCtot,br×Fu,br)/(AUCtot,pl×Fu,pl).
The below table also assigns each compound a code for kp and kpu,u values: A or B. According to the code. A represents a value of >0.3 and B represents a value of ≤0.3. […] The kpu,u was then calculated upon correcting this kp value with mouse plasma protein binding and mouse brain homogenates binding. A Kpu,u value >0.3 is brain penetrant, and Kpu,u value less than or equal to 0.3 is not brain penetrant. N.D.=not determined. The corresponding raw kp and kpu,u data is also included.

The nature of data set [2]: Solubility in phosphate buffered solution (PBS, pH 7.4). The class given is physicochemical. As to conditions: for solubility at 2 h: phosphate buffered solution (PBS), aqueous buffer, kinetic from dmso stock; for increase in solubility (PBS, pH 7.4) compared to Comparative Example 3: relative to Comparative Example 3 (6.7 uM). The procedure: In additional embodiments, the solubility of compounds of the instant disclosure may be determined following known procedures, such as described in Alsenz and Kansy, Advanced Drug Delivery Reviews (2007) 59:546-567, and Wang et al. J Mass Spectrom. (2000) 35:71-76. For example, the kinetic solubility in physiologically relevant media, such as phosphate buffered solution (PBS, pH 7.4) or simulated gastric fluid (SGF), may be measured using serial dilution and two hour incubation period, followed by filtration, and reported in μM by LC-MS/MS. Thermodynamic solubility in physiologically relevant media may be measured by LC-MS/MS, after a twenty-four hour incubation, followed by filtration, and reported in mg/mL. Optimized solubility may be beneficial for manufacturing and further processing of the compound. Furthermore, optimized solubility allows for a more efficient in vitro analysis of the compound, including data collection around the compound's safety, drug-drug interactions, potency, selectivity, metabolism, and permeability. […]

[3] abbreviates: whole brain AUC over 24 h divided by plasma AUC, read-out: kp (code).
The mark [4] stands for this setting: whole brain AUC over 24 h divided by plasma AUC, read-out: kp (raw).
Where [5] appears, read: kp corrected with mouse plasma protein binding and mouse brain homogenate binding.

Consider `Cc1cc(O)c(-c2nnc(N[C@H]3COC(C)(C)C3)c3cnccc23)c(Cl)c1` (single isomer, unassigned) [Compound 26*], for which, at NLRP3, the IC50 was 900 nM. In addition, the concentration ratio (Kp) at 24 h in data set [1] (setting [3]) was not above 0.3. Moreover, the Kp at 24 h in data set [1] (setting [4]) is 0.1. Also, in data set [1] (setting [5]), the Kpu,u (unbound brain-to-plasma ratio) turned out to be 0.17 and the “kpu,u (code)” value is recorded as “B (B represents a value of ≤0.3)”. Further, in data set [2], the concentration in solution (solubility at 2 h) came to 280 µM (≈ 108 µg/mL) and the “increase in solubility (PBS, pH 7.4) compared to Comparative Example 3” value (shortened to “increase in solubility”) was 42 fold.
Consider `Cc1cc(O)c(-c2nnc(N[C@H]3COC(C)(C)C3)c3cnccc23)c(F)c1` (single isomer, unassigned) [Compound 21*], for which the half-inhibitory concentration (IC50) on NLRP3 was determined as 460 nM. In addition, the partition ratio (Kp) at 24 h in data set [1] (setting [3]) was more than 0.3. Also, the Kp at 24 h in data set [1] (setting [4]) came to 0.3. In data set [1] (setting [5]), the Kpu,u (unbound brain-to-plasma ratio) is 0.76 and the “kpu,u (code)” value is reported as “A (A represents a value of >0.3)”. Moreover, in data set [2], the solubility at 2 h was 250 µM (≈ 92.1 µg/mL) and the “increase in solubility” value came out at 37 fold.
Take `CC1(C)C[C@@H](Nc2nnc(-c3ccc(Cl)cc3O)c3ccncc23)CO1` [Comparative Example 3, (R)-5-chloro-2-(4-((5,5-dimethyltetrahydrofuran-3-yl)amino)pyrido[3,4-d]pyridazin-1-yl)phenol, reference compound]: the partition ratio (Kp) at 24 h in data set [1] (setting [3]) is more than 0.3. In addition, in data set [1] (setting [4]), the Kp at 24 h stood at 0.4. In data set [1] (setting [5]), the “kpu,u (code)” value is reported as “A (A represents a value of >0.3)” and the “kpu,u (raw)” value turned out to be 0.43. This compound had a solubility at 2 h in data set [2] of 6.7 µM (≈ 2.48 µg/mL).
Take `CC1(C)C[C@@H](Nc2nnc(-c3ccc(OC(F)F)cc3O)c3ccncc23)CO1` (single isomer, unassigned) [Compound 9B*]: the IC50 at NLRP3 came to 61 nM. The Kp at 24 h in data set [1] (setting [3]) is not above 0.3. For the same compound, the Kp at 24 h in data set [1] (setting [4]) amounted to 0.24. Moreover, in data set [1] (setting [5]), the Kpu,u (unbound brain-to-plasma ratio) came to 0.52 and the “kpu,u (code)” value was “A (A represents a value of >0.3)”. In data set [2], the solubility at 2 h came to 45 µM (≈ 18.1 µg/mL) and the “increase in solubility” value came to 7 fold.
Turning to `CC1(C)C[C@H](Nc2nnc(-c3ccc(OC(F)F)cc3O)c3ccncc23)CO1` (single isomer, unassigned) [Compound 9*], the half-inhibitory concentration (IC50) on NLRP3 came out at 260 nM. The partition ratio (Kp) at 24 h in data set [1] (setting [3]) was more than 0.3. Also, the concentration ratio (Kp) at 24 h in data set [1] (setting [4]) worked out at 0.4. In data set [1] (setting [5]), the Kpu,u (unbound brain-to-plasma ratio) stood at 0.63 and the “kpu,u (code)” value is given as “A (A represents a value of >0.3)”. Further, the “kp (code)” value in data set [1] (whole brain AUC over 24 h divided by plasma AUC) is “A (A represents a value of >0.3)”. In addition, in data set [2], the solubility at 2 h is 45 µM (≈ 18.1 µg/mL) and the “increase in solubility” value was found to be 7 fold.
Consider `Cc1ccc(-c2nnc(N[C@H]3COC(C)(C)C3)c3cnccc23)c(O)c1` [Compound 5, (R)-2-(4-((5,5-dimethyltetrahydrofuran-3-yl)amino)pyrido[3,4-d]pyridazin-1-yl)-5-methylphenol], for which the 50% inhibitory concentration (IC50) at NLRP3 is 220 nM. The Kp at 24 h in data set [1] (setting [3]) was more than 0.3. Moreover, the Kp at 24 h in data set [1] (setting [4]) worked out at 0.44. Besides, in data set [1] (setting [5]), the Kpu,u (unbound brain-to-plasma ratio) is 0.94 and the “kpu,u (code)” value was “A (A represents a value of >0.3)”. Also, in data set [2], the concentration in solution (solubility at 2 h) was 180 µM (≈ 63.1 µg/mL) and the “increase in solubility” value is given as 27 fold.
As to `Cc1cc(C)c(-c2nnc(N[C@H]3COC(C)(C)C3)c3cnccc23)c(O)c1` (single isomer, unassigned) [Compound 24*], the IC50 on NLRP3 worked out at 330 nM. The Kp at 24 h in data set [1] (setting [3]) was not above 0.3; in data set [1] (setting [4]), 0.05. The compound also had a solubility at 2 h in data set [2] of 290 µM (≈ 106 µg/mL). Moreover, the “increase in solubility” value in data set [2] worked out at 43 fold.
